From patent US20260250318A1, “COMPOSITIONS AND METHODS FOR CROSSING THE BLOOD BRAIN BARRIER” (VOYAGER THERAPEUTICS, INC., priority 2022, published 2026)

Key:
brain [1] = experiment: Maturation of TTM-002 capsid, NGS enrichment in brain of CD-1 Outbred mice; format: in vivo; conditions: NGS fold-enrichment in the brain of CD-1 Outbred mice; intravenous, 1.0×10^12 VG/dose, 14 days; RNA; relative to non-matured TTM-002 control
Excerpt: This Example describes maturation of the TTM-001 (SEQ ID NO: 981 (amino acid) and 983 (DNA), comprising SEQ ID NO: 941) and TTM-002 (SEQ ID NO: 982 (amino acid) and 984 (DNA), comprising SEQ ID NO: 2) capsid variants to further enhance their transduction and biodistribution in the central nervous system and evolve the AAV capsid variants to provide further cross-species compatibility. Two approaches were used to mature the TTM-001 and TTM-002 capsid sequences in order to randomize and mutate within and around the peptide insert comprised within loop IV of the capsid variant. […] In the first maturation approach, sets of three contiguous amino acids were randomized across the mutagenesis region in the TTM-001 and TTM-002 sequences, which spanned from position 450 to position 466, numbered according to SEQ ID NO: 981 and 982. In the second maturation approach, mutagenic primers were used to introduce point mutations at a low frequency, scattered across the mutagenesis region in the TTM-001 and TTM-002 sequences ranging from position 449 to position 466, numbered according to SEQ ID NO: 981 and 982. AAV capsid variants arising from each maturation approach for TTM-001 were pooled together and AAV capsid variants arising from each maturation approach for TTM-002 were also pooled together, for subsequent testing and characterization in mice.
The library of pooled matured AAV capsid variants generated from TTM-001 or library of pooled matured AAV capsid variants generated from the TTM-002 matured AAV capsid variant each were intravenously injected into the tail vein of three female CD-1 Outbred mice (Charles River) at a dose of 1.0×10^12 VG/dose. After 14-days in life, the brains of the mice were isolated and RNA was extracted. Following RNA recovery and RT-PCR amplification, a systematic NGS enrichment analysis was performed to calculate the fold enrichment ratio relative to the corresponding TTM-001 or TTM-002 control, and the peptides comprised within the variants were identified. The data for the TTM-001 matured capsid variants is provided in Table 13 and the data for the TTM-002 matured capsid variants is provided in Table 14.

[2] = tested on: brains, heart, liver, muscle, and DRG of the NHPs; experiment: Maturation of TTM-001 and TTM-002 capsids, NGS enrichment in NHP tissues; format: in vivo; conditions: relative to AAV9 control
Outline: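 Variants carry mutations within and flanking the loop IV peptide insert: positions 450–466 were triplet-randomized, while positions 449–466 received low-frequency point mutations. The combined pool went into two NHPs, and each peptide was scored by NGS enrichment ratio against AAV9.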

brain [3] = experiment: Matured TTM-001 and TTM-002 variants, NGS enrichment in mouse brain; format: in vivo, mice; conditions: relative to AAV9 control
[4] = NGS fold-enrichment, DRG of NHPs
[5] = NGS fold-enrichment, RNA, brain of NHPs
[6] = NGS fold-enrichment, heart of NHPs
[7] = NGS fold-enrichment, liver DNA of NHPs
[8] = NGS fold-enrichment, liver RNA of NHPs
[9] = NGS fold-enrichment, muscle of NHPs
[10] = NGS fold-enrichment, brain of mice
[11] = NGS fold-enrichment of RNA, NHP brain
[12] = NGS fold-enrichment, NHP liver DNA
[13] = NGS fold-enrichment, NHP liver RNA
[14] = NGS fold-enrichment, NHP muscle
[15] = NGS fold-enrichment, mouse brain

| Sequence | Fold enrichment over TTM-002 (brain [1]) | also measured |
| --- | --- | --- |
| KADMGHDSPHKSGQNQQT | 2.48 |  |
| KADQGHDSPHKSGQNQQT | 2.07 |  |
| KADWGHDSPHKSGQNQQT | 2.32 |  |
| KADYGHDSPHKSGQNQQT | 2.40 |  |
| KAEIGHDSPHKSGQNQQT | 2.17 | Fold Enrichment relative to AAV9, Brain (NHP) ([2]; NGS fold-enrichment of matured AAV capsid variants, NHP brain, RNA): 63.249 fold; Fold Enrichment relative to AAV9, DRG (NHP) ([2]; NHP DRG): 0.000 fold; Fold Enrichment relative to AAV9, Heart (NHP) ([2]; NHP heart): 0.000 fold; Fold Enrichment relative to AAV9, Liver DNA (NHP) ([2]; NHP liver, DNA): 0.024 fold; Fold Enrichment relative to AAV9, Liver RNA (NHP) ([2]; NHP liver, RNA): 0.060 fold; Fold Enrichment relative to AAV9, Muscle (NHP) ([2]; NHP muscle): 0.000 fold; Fold Enrichment relative to AAV9, Brain (Mouse) (brain [3]; mouse brain): 27.173 fold |
| KAEQGHDSPHKSGQNQQT | 2.14 |  |
| KAEVGHDSPHKSGQNQQT | 2.15 |  |
| KAEWGHDSPHKSGQNQQT | 2.69 |  |
| KANNGQDSPHKSGQNQQT | 2.67 |  |
| KATNGHDSPHKSGLNQQT | 2.10 |  |
| KCEIGHDSPHKSGQNQQT | 2.10 |  |
| KCEWGHDSPHKSGQNQQT | 2.68 |  |
| KCEYGHDSPHKSGQNQQT | 2.36 |  |
| KDIMGHDSPHKSGQNQQT | 2.23 |  |
| KFEQGHDSPHKSGQNQQT | 2.22 |  |
| KHDWGHDSPHKSGQNQQT | 2.00 |  |
| KIEGGHDSPHKSGQNQQT | 2.00 |  |
| KIEIGHDSPHKSGQNQQT | 2.30 |  |
| KIEMGHDSPHKSGQNQQT | 2.05 |  |
| KIENGHDSPHKSGQNQQT | 2.19 |  |
| KIESGHDSPHKSGQNQQT | 2.11 |  |
| KIETGHDSPHKSGQNQQT | 2.38 |  |
| KIEVGHDSPHKSGQNQQT | 2.16 |  |
| KIEYGHDSPHKSGQNQQT | 2.41 |  |
| KIINGHDSPHKSGLTQQT | 2.17 |  |
| KIPEGHDSPHKSGQNQQT | 2.54 |  |

| Sequence | Fold enrichment over TTM-002 (brain [1]) | also measured |
| --- | --- | --- |
| KISNGHDSPHKSAQNQQT | 2.03 |  |
| KLEWGHDSPHKSGQNQQT | 2.14 |  |
| KLEYGHDSPHKSGQNQQT | 2.33 |  |
| KLPEGHDSPHKSGQNQQT | 2.19 |  |
| KMDAGHDSPHKSGQNQQT | 2.15 |  |
| KMDGGHDSPHKSGQNQQT | 2.09 |  |
| KMEAGHDSPHKSGQNQQT | 2.12 |  |
| KMEFGHDSPHKSGQNQQT | 2.21 |  |
| KMEGGHDSPHKSGQNQQT | 2.72 |  |
| KMEIGHDSPHKSGQNQQT | 2.34 |  |
| KMELGHDSPHKSGQNQQT | 2.13 |  |
| KMEMGHDSPHKSGQNQQT | 2.16 |  |
| KMESGHDSPHKSGQNQQT | 2.18 |  |
| KMETGHDSPHKSGQNQQT | 2.12 |  |
| KMEVGHDSPHKSGQNQQT | 2.11 |  |
| KMEWGHDSPHKSGQNQQT | 2.38 |  |
| KMEYGHDSPHKSGQNQQT | 2.71 |  |
| KMPEGHDSPHKSGQNQQT | 3.18 |  |
| KNMNGHDSPHKSGQNTHS | 2.06 |  |
| KQEVGHDSPHKSGQNQQT | 2.07 |  |
| KQQQGHDSPHKSGQNQQT | 2.01 |  |
| KRINGHDSPHKSGQKQQN | 2.34 |  |
| KTAKDHDSPHKSGQNQQT | 2.11 |  |
| KTANEHDSPHKSGQNQQT | 2.05 |  |
| KTGNGHDSPHKSGQYQQT | 2.03 |  |
| KTIKDNDSPHKSGQNQQT | 2.27 |  |

| Sequence | Fold enrichment over TTM-002 (brain [1]) | also measured |
| --- | --- | --- |
| KTINGHDSPHINGQKQQT (KTINGHDSPHTNGQKQQT) | 2.38 |  |
| KTINGHDSPHKRGQHRQT | 4.20 |  |
| KTINGHDSPHKSAQNQWT | 2.07 |  |
| KTINGHDSPHKSGRRRQT | 2.04 |  |
| KTINGHDSPHKSRQNDQT | 2.01 |  |
| KTINGHDSPHLCGQNQQT | 2.59 |  |
| KTINGHDSPHLLWQNQQT | 2.12 |  |
| KTINGHDSPHVIDQNQQT (KTINGHDSPHVTDQNQQT) | 5.20 |  |
| KTINGHDSPHWLLQNQQT | 2.37 |  |
| KTINGHESPHKSAQNHQT | 2.07 |  |
| KTINGHLSPHYFGQNQQT | 2.41 |  |
| KTINGHLSPHYYGQNQQT | 2.13 |  |
| KTINGHPSPHYLGQNQQT | 2.14 |  |
| KTINGHSSPHYFGQNQQT | 2.05 |  |
| KTINGHYSPHLFGQNQQT | 2.02 |  |
| KTINGNYSPHKIGQNQQT | 2.02 |  |
| KTINRQRSPHKSGQNQQT | 2.11 |  |
| KTPQDHDSPHKSGQNQQT | 2.00 |  |
| KTPWEHDSPHKSGQNQQT | 2.05 |  |
| KTSNGDDSPHKSGRNQQT | 2.17 |  |
| KVEWGHDSPHKSGQNQQT | 2.15 |  |
| KVEYGHDSPHKSGQNQQT (peptide inserted in AAV capsid) | 2.17 |  |
| NTIYGSGSPHSKAQNQQT (peptide inserted in AAV capsid) |  | Fold Enrichment relative to AAV9, DRG (NHP) [2, 4]: 1.739 fold; Fold Enrichment relative to AAV9, Brain (NHP) [2, 5]: 71.267 fold; Fold Enrichment relative to AAV9, Heart (NHP) [2, 6]: 0.000 fold; Fold Enrichment relative to AAV9, Liver DNA (NHP) [2, 7]: 0.209 fold; Fold Enrichment relative to AAV9, Liver RNA (NHP) [2, 8]: 0.000 fold; Fold Enrichment relative to AAV9, Muscle (NHP) [2, 9]: 273.69 fold; Fold Enrichment relative to AAV9, Brain (Mouse) (brain [3]; [10]): 59.707 fold |
| TTINGHDSPHKSGQNQQT (peptide inserted in AAV capsid) |  | Fold Enrichment relative to AAV9, Brain (NHP) [2, 11]: 108.963 fold; Fold Enrichment relative to AAV9, DRG (NHP) ([2]; NGS fold-enrichment, NHP DRG): 1.512 fold; Fold Enrichment relative to AAV9, Heart (NHP) ([2]; NGS fold-enrichment, NHP heart): 3.445 fold; Fold Enrichment relative to AAV9, Liver DNA (NHP) [2, 12]: 1.109 fold; Fold Enrichment relative to AAV9, Liver RNA (NHP) [2, 13]: 0.659 fold; Fold Enrichment relative to AAV9, Muscle (NHP) [2, 14]: 0.869 fold; Fold Enrichment relative to AAV9, Brain (Mouse) (brain [3]; [15]): 14.788 fold |
| TTINGSGSPHSKAQNQQT (peptide inserted in AAV capsid) |  | Fold Enrichment relative to AAV9, Brain (NHP) [2, 11]: 114.856 fold; Fold Enrichment relative to AAV9, DRG (NHP) [2, 4]: 1.340 fold; Fold Enrichment relative to AAV9, DRG (NHP) ([2]; NGS fold-enrichment, NHP DRG): 1.340 fold; Fold Enrichment relative to AAV9, Heart (NHP) ([2]; NGS fold-enrichment, NHP heart): 14.856 fold; Fold Enrichment relative to AAV9, Liver DNA (NHP) [2, 12]: 0.957 fold; Fold Enrichment relative to AAV9, Liver RNA (NHP) [2, 13]: 1.281 fold; Fold Enrichment relative to AAV9, Muscle (NHP) [2, 14]: 0.827 fold; Fold Enrichment relative to AAV9, Brain (NHP) [2, 5]: 114.856 fold; Fold Enrichment relative to AAV9, Heart (NHP) [2, 6]: 14.856 fold; Fold Enrichment relative to AAV9, Liver DNA (NHP) [2, 7]: 0.957 fold; Fold Enrichment relative to AAV9, Liver RNA (NHP) [2, 8]: 1.281 fold; Fold Enrichment relative to AAV9, Muscle (NHP) [2, 9]: 0.827 fold; Fold Enrichment relative to AAV9, Brain (Mouse) (brain [3]; [10]): 72.058 fold; Fold Enrichment relative to AAV9, Brain (Mouse) (brain [3]; [15]): 72.058 fold |
